Results: US9133167B2, “Antibacterial quinoline derivatives” (JANSSEN PHARMACEUTICA NV, priority 2012, dated 2015)
Converted amounts (≈) assume the structure as drawn.

Tests used:
[1] = tested on: Staphylococcus aureus (ATCC29213); experiment: Microtitre plate assay, IC90 for bacterial growth, Staphylococcus aureus strain; assay type: cell-based; conditions: 90% inhibitory concentration for bacterial growth, 24 hours at 37° C.; for IC90: read-out: IC90 (μg/ml) STA B29213
Description: D.2. In-Vitro Method for Testing Compounds for Anti-Bacterial Activity Against a Non-Mycobacterial Strain
Preparation of Bacterial Suspensions for Susceptibility Testing:
The bacteria used in this study were grown overnight in flasks containing 100 ml Mueller-Hinton Broth (Becton Dickinson—cat. no. 275730) in sterile de-ionized water, with shaking, at 37° C. Stocks (0.5 ml/tube) were stored at −70° C. until use. Bacteria titrations were performed in microtiter plates to detect the TCID50, in which TCID50 represents the dilution that gives rise to bacterial growth in 50% of inoculated cultures. In general, an inoculum level of approximately 100 TCID50 was used for susceptibility testing.
Anti Bacterial Susceptibility Testing: IC90 Determination
Flat-bottom, sterile 96-well plastic microtiter plates were filled with 180 μl of sterile deionized water, supplemented with 0.25% BSA. Subsequently, stock solutions (7.8× final test concentration) of compounds were added in 45 μl volumes in column 2 Serial five-fold dilutions (45 μl in 180 μl) were made directly in the microtiter plates from column 2 to reach column 11. Untreated control samples with (column 1) and without (column 12) inoculum were included in each microtiter plate. Depending on the bacteria type, approximately 10 to 60 CFU per well of bacteria inoculum (100 TCID50), in a volume of 100 μl in 2.8× Mueller-Hinton broth medium, was added to the rows A to H, except column 12. The same volume of broth medium without inoculum was added to column 12 in row A to H. The cultures were incubated at 37° C. for 24 hours under a normal atmosphere (incubator with open air valve and continuous ventilation). At the end of incubation, one day after inoculation, the bacterial growth was quantitated fluorometrically. Therefore resazurin (0.6 mg/ml) was added in a volume of 20 μl to all wells 3 hours after inoculation, and the plates were re-incubated overnight. A change in colour from blue to pink indicated the growth of bacteria. The fluorescence was read in a computer-controlled fluorometer (Cytofluor Biosearch) at an excitation wavelength of 530 nm and an emission wavelength of 590 nm. The % growth inhibition achieved by the compounds was calculated according to standard methods. The IC90 (expressed in μg/ml) was defined as the 90% inhibitory concentration for bacterial growth. The results are shown in Table 7 for an assay using a Staphylococcus aureus strain.

[2] = tested on: Mycobacterium smegmatis (ATCC607); experiment: In-vitro anti-bacterial activity against strain M. smegmatis ATCC607 (Alamar Blue growth inhibition); assay type: cell-based; conditions: 90% inhibitory concentration for bacterial growth, 48 hours at 37° C.; for IC90: Mycolicibacterium smegmatis, read-out: IC90 (μg/ml) MSM 607
Description: D.1. In-Vitro Method for Testing Compounds for Anti-Bacterial Activity Against Strain M. Smegmatis ATCC607.
Flat-bottom, sterile 96-well plastic microtiter plates were filled with 180 μl of sterile deionized water, supplemented with 0.25% BSA. Subsequently, stock solutions (7.8× final test concentration) of compounds were added in 45 μl volumes to a series of duplicate wells in column 2 so as to allow evaluation of their effects on bacterial growth. Serial five-fold dilutions (45 μl in 180 μl) were made directly in the microtiter plates from column 2 to 11 using a customised robot system (Zymark Corp., Hopkinton, Mass.). Pipette tips were changed after every 3 dilutions to minimize pipetting errors with high hydrophobic compounds. Untreated control samples with (column 1) and without (column 12) inoculum were included in each microtiter plate. Approximately 250 CFU per well of bacteria inoculum, in a volume of 100 in 2.8× Mueller-Hinton broth medium, was added to the rows A to H, except column 12. The same volume of broth medium without inoculum was added to column 12 in row A to H. The cultures were incubated at 37° C. for 48 hours in a humidified 5% CO2 atmosphere (incubator with open air valve and continuous ventilation). At the end of incubation, two days after inoculation, the bacterial growth was quantitated fluorometrically. Therefore Alamar Blue (10×) was added to all wells in a volume of 20 and plates were incubated for another 2 hours at […]
The fluorescence was read in a computer-controlled fluorometer (Cytofluor, Biosearch) at an excitation wavelength of 530 nm and an emission wavelength of 590 nm (gain 30). The percentage growth inhibition achieved by the compounds was calculated according to standard methods and expressed as IC90 […] which defines the 90% inhibitory concentration for bacterial growth.

COc1nc2ccc(C(C)C)cc2cc1C(c1ccc(Cl)cc1)C1(O)CCN(CCc2ccccc2)CC1.O=C(O)/C=C/C(=O)O (racemic) [Compound 91]
IC90 (μg/ml) STA B29213 [1]: 3.16 µg/mL
IC90 (μg/ml) MSM 607 [2]: 0.63 µg/mL

COc1nc2ccc(-c3cccnc3)cc2cc1C(c1ccc(Cl)cc1)C1(O)CCNCC1.O=C(O)/C=C/C(=O)O (racemic) [Compound 93]
IC90 (μg/ml) STA B29213 [1]: 10.83 µg/mL
IC90 (μg/ml) MSM 607 [2]: 3.05 µg/mL

COc1nc2ccc(-c3cccnc3)cc2cc1C(c1ccc(Cl)cc1)C1(O)CCN(C)CC1 (racemic) [Compound 94]
IC90 (μg/ml) STA B29213 [1]: 14.99 µg/mL (≈ 31.6 µM)
IC90 (μg/ml) MSM 607 [2]: 6.70 µg/mL (≈ 14.1 µM)

COc1nc2ccc(Br)cc2cc1C(c1ccccc1Cl)C1(O)CCNCC1.O=C(O)/C=C/C(=O)O (racemic) [Compound 95]
IC90 (μg/ml) STA B29213 [1]: 15.22 µg/mL
IC90 (μg/ml) MSM 607 [2]: 6.06 µg/mL

COc1nc2ccc(-c3cccnc3)cc2cc1C(c1ccccc1Cl)C1(O)CCNCC1.O=C(O)/C=C/C(=O)O (racemic) [Compound 97]
IC90 (μg/ml) STA B29213 [1]: 16.25 µg/mL
IC90 (μg/ml) MSM 607 [2]: 4.08 µg/mL

COc1nc2ccc(Br)cc2cc1C(c1cccc(Cl)c1)C1(O)CCNCC1.O=C(O)/C=C/C(=O)O (racemic) [Compound 98]
IC90 (μg/ml) STA B29213 [1]: 15.62 µg/mL
IC90 (μg/ml) MSM 607 [2]: 7.83 µg/mL

COc1nc2ccc(S(C)(=O)=O)cc2cc1C(c1ccccc1)C1(O)CCNCC1.O=C(O)/C=C/C(=O)O (racemic) [Compound 99]
IC90 (μg/ml) STA B29213 [1]: >13.31 µg/mL
IC90 (μg/ml) MSM 607 [2]: >13.31 µg/mL

COc1nc2ccc(Br)cc2cc1C(c1ccc(Cl)cc1)C1(O)CCN(Cc2cccc(C#N)c2)CC1.O=C(O)/C=C/C(=O)O (racemic) [Compound 105]
IC90 (μg/ml) STA B29213 [1]: 14.49 µg/mL
IC90 (μg/ml) MSM 607 [2]: 14.49 µg/mL

COc1nc2ccc(Br)cc2cc1C(c1ccc(Cl)cc1)C1(O)CCN(Cc2ccccc2)CC1 (stereo not drawn) [Compound 6]
IC90 [1]: > 13.9 µg/mL
IC90 [2]: > 13.9 µg/mL

COc1nc2ccc(Br)cc2cc1C(c1ccc(S(C)(=O)=O)cc1)C1(O)CCNCC1 (stereo not drawn) [Compound 19]
IC90 [1]: > 16.1 µg/mL
IC90 [2]: > 16.1 µg/mL

COc1nc2ccc(Br)cc2cc1C(c1ccc(S(C)(=O)=O)cc1)C1(O)CCN(Cc2ccccc2)CC1 (stereo not drawn) [Compound 20]
IC90 [1]: 7.5 µg/mL (≈ 12.6 µM)
IC90 [2]: 3.76 µg/mL (≈ 6.31 µM)

COc1nc2ccc(Br)cc2cc1C(c1ccccc1)C1(O)CCN(C)CC1 (stereo not drawn) [Compound 28]
IC90 (μg/ml) STA B29213 [1]: >27.85 µg/mL
IC90 (μg/ml) MSM 607 [2]: 11.09 µg/mL (≈ 25.1 µM)

COc1nc2ccc(Br)cc2cc1C(c1ccc(Cl)cc1)C1(O)CCN(CCc2ccccc2)CC1.O=C(O)/C=C/C(=O)O (stereo not drawn) [Compound 47]
IC90 (μg/ml) STA B29213 [1]: 17.86 µg/mL
IC90 (μg/ml) MSM 607 [2]: 4.49 µg/mL

COc1nc2ccc(Br)cc2cc1C(c1ccc2ccccc2c1)C1(O)CCN(Cc2ccccc2)CC1.O=C(O)/C=C/C(=O)O (stereo not drawn) [Compound 56]
IC90 (μg/ml) STA B29213 [1]: >44.60 µg/mL

COc1nc2ccc(Br)cc2cc1C(c1cccnc1)C1(O)CCN(Cc2ccccc2)CC1.O=C(O)/C=C/C(=O)O (stereo not drawn) [Compound 57]
IC90 (μg/ml) STA B29213 [1]: 20.32 µg/mL

COc1nc2ccc(Br)cc2cc1C(c1cccc(Cl)c1)C1(O)CCN(Cc2ccccc2)CC1 (stereo not drawn) [Compound 59]
IC90 (μg/ml) STA B29213 [1]: 17.45 µg/mL (≈ 31.6 µM)

COc1nc2ccc(Br)cc2cc1C(c1cccc(Cl)c1)C1(O)CCN(Cc2ccccc2)CC1.O=C(O)/C=C/C(=O)O (stereo not drawn) [Compound 60]
IC90 (μg/ml) STA B29213 [1]: >43.03 µg/mL

COc1nc2ccc(Br)cc2cc1C(c1cccc(C)c1)C1(O)CCN(Cc2ccccc2)CC1 (stereo not drawn) [Compound 61]
IC90 (μg/ml) STA B29213 [1]: 15.85 µg/mL (≈ 29.8 µM)
IC90 (μg/ml) MSM 607 [2]: 3.16 µg/mL (≈ 5.95 µM)

COc1nc2ccc(Br)cc2cc1C(c1ccc(Cl)cc1)C1(O)CCN(Cc2ccccc2C)CC1 (stereo not drawn) [Compound 62]
IC90 (μg/ml) STA B29213 [1]: 15.85 µg/mL (≈ 28 µM)
IC90 (μg/ml) MSM 607 [2]: 3.16 µg/mL (≈ 5.58 µM)

COc1nc2ccc(Br)cc2cc1C(c1ccc(Cl)cc1)C1(O)CCN(Cc2ccccc2C)CC1.O=C(O)/C=C/C(=O)O (stereo not drawn) [Compound 63]
IC90 (μg/ml) STA B29213 [1]: >44.79 µg/mL

COc1nc2ccc(Br)cc2cc1C(c1ccc(Cl)c(Cl)c1)C1(O)CCN(Cc2ccccc2)CC1.O=C(O)/C=C/C(=O)O (stereo not drawn) [Compound 65]
IC90 (μg/ml) STA B29213 [1]: >46.15 µg/mL

COc1nc2ccc(Br)cc2cc1C(c1ccco1)C1(O)CCN(Cc2ccccc2)CC1.O=C(O)/C=C/C(=O)O (stereo not drawn) [Compound 68]
IC90 (μg/ml) STA B29213 [1]: >40.66 µg/mL

C=Cc1ccc2nc(OC)c(C(c3ccc(Cl)cc3)C3(O)CCN(Cc4ccc(C)cc4)CC3)cc2c1.O=C(O)/C=C/C(=O)O (stereo not drawn) [Compound 73]
IC90 (μg/ml) STA B29213 [1]: >41.02 µg/mL

O=c1[nH]c2ccc(Br)cc2cc1C(c1ccc(Cl)cc1)C1(O)CCN(CCc2ccccc2)CC1 (stereo not drawn) [Compound 74]
IC90 (μg/ml) STA B29213 [1]: 6.95 µg/mL (≈ 12.6 µM)

CN(C)c1nc2ccc(Br)cc2cc1C(c1ccc(Cl)cc1)C1(O)CCN(Cc2ccccc2)CC1.O=C(O)/C=C/C(=O)O (stereo not drawn) [Compound 75]
IC90 (μg/ml) STA B29213 [1]: 34.89 µg/mL

COc1nc2ccc(C#N)cc2cc1C(c1ccc(Cl)cc1)C1(O)CCN(Cc2ccc(C)cc2)CC1 (stereo not drawn) [Compound 76]
IC90 (μg/ml) STA B29213 [1]: >21.99 µg/mL

O=C(O)/C=C/C(=O)O.OC1(C(c2ccc(Cl)cc2)c2cc3cc(Br)ccc3nc2N2CCOCC2)CCN(Cc2ccccc2)CC1 (stereo not drawn) [Compound 77]
IC90 (μg/ml) STA B29213 [1]: >47.23 µg/mL

O=c1[nH]c2ccc(-c3cccnc3)cc2cc1C(c1ccc(Cl)cc1)C1(O)CCN(Cc2ccccc2)CC1 (stereo not drawn) [Compound 78]
IC90 (μg/ml) STA B29213 [1]: 13.47 µg/mL (≈ 25.1 µM)

O=c1[nH]c2ccc(Br)cc2cc1C(c1ccc(Cl)cc1)C1(O)CCNCC1 (stereo not drawn) [Compound 79]
IC90 (μg/ml) STA B29213 [1]: 28.25 µg/mL (≈ 63.1 µM)

COc1ccc2nc(OC)c(C(c3ccc(Cl)cc3)C3(O)CCN(Cc4ccccc4)CC3)cc2c1.O=C(O)/C=C/C(=O)O (stereo not drawn) [Compound 81]
IC90 (μg/ml) STA B29213 [1]: 10.05 µg/mL

COc1nc2ccc(Br)cc2cc1C(C1Oc2ccccc2O1)C1(O)CCN(Cc2ccccc2)CC1.O=C(O)/C=C/C(=O)O (stereo not drawn) [Compound 85]
IC90 (μg/ml) STA B29213 [1]: 34.54 µg/mL

COc1nc2ccc(C(F)(F)F)cc2cc1C(c1ccc(Cl)cc1)C1(O)CCN(Cc2ccccc2)CC1.O=C(O)/C=C/C(=O)O (stereo not drawn) [Compound 86]
IC90 (μg/ml) STA B29213 [1]: >43.95 µg/mL

O=C(O)/C=C/C(=O)O.OC1(C(c2ccc(Cl)cc2)c2cc3cc(Br)ccc3nc2N2CCCCC2)CCN(Cc2ccccc2)CC1 (stereo not drawn) [Compound 87]
IC90 (μg/ml) STA B29213 [1]: >48.13 µg/mL

COc1nc2ccc(Cl)cc2cc1C(c1ccc(Br)cc1)C1(O)CCN(Cc2ccccc2)CC1 (stereo not drawn) [Compound 88]
IC90 (μg/ml) STA B29213 [1]: 3.98 µg/mL (≈ 7.21 µM)
IC90 (μg/ml) MSM 607 [2]: 3.16 µg/mL (≈ 5.73 µM)

COc1nc2ccc(C(C)C)cc2cc1C(c1ccc(Cl)cc1)C1(O)CCN(Cc2ccccc2)CC1.O=C(O)/C=C/C(=O)O (stereo not drawn) [Compound 90]
IC90 (μg/ml) STA B29213 [1]: >41.36 µg/mL
